From the kinase profiling compilation of Christmann-Franck et al. (2016)
Each block holds one compound with its values, some of them ahead of it.

Legend:
Experiment in all cases: KINOMEscan competition binding
Settings in all cases: compound 10.0 µM
FGFR1 (human) = FGFR1 (human) (UniProt P11362)
MUSK (human) = MUSK (human) (UniProt O15146)
MERTK (human) = MERTK (human) (UniProt Q12866)
[1] = system: FLT3 (human), P36888 [D835Y]
FER (human) = FER (human) (UniProt P16591)
PRKG1 (human) = PRKG1 (human) (UniProt Q13976)
PRKD2 (human) = PRKD2 (human) (UniProt Q9BZL6)
WEE1 (human) = WEE1 (human) (UniProt P30291)
CDK2 (human) = CDK2 (human) (UniProt P24941)
TLK1 (human) = TLK1 (human) (UniProt Q9UKI8)
TLK1 (human), sequence (Q9UKI8 whole entry, looked up): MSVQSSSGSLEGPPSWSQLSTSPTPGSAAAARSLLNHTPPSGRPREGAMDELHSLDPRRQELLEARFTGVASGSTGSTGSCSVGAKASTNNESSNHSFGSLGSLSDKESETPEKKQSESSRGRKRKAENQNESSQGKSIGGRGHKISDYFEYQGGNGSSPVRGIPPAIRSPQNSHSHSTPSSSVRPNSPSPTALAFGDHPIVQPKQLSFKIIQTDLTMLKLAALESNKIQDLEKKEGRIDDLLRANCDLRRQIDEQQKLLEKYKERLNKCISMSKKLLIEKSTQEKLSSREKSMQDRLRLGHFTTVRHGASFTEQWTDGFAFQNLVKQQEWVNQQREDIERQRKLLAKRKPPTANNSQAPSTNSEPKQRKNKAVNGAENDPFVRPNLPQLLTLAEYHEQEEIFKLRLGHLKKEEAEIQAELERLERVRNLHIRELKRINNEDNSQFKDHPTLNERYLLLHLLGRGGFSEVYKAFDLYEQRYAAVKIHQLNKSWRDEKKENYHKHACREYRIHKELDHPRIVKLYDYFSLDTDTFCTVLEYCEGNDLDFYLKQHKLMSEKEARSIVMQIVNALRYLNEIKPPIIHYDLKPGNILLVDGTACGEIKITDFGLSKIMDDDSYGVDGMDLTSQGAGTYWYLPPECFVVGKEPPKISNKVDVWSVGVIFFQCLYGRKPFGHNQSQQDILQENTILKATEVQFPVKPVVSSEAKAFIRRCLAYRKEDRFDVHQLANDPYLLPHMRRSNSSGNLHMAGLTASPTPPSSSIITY

MAP3K6 (human) = MAP3K6 (human) (UniProt O95382)
RPS6KA5 KD2 (human) = RPS6KA5 KD2 (human) (UniProt O75582)
STK24 (human) = STK24 (human) (UniProt Q9Y6E0)
BLK (human) = BLK (human) (UniProt P51451)
KDR (human) = KDR (human) (UniProt P35968)
[2] = system: PIK3CA (human), P42336 [H1047Y]
BTK (human) = BTK (human) (UniProt Q06187)
DMPK (human) = DMPK (human) (UniProt Q09013)
CDKL2 (human) = CDKL2 (human) (UniProt Q92772)
CDKL2 (human), sequence (Q92772 whole entry, looked up): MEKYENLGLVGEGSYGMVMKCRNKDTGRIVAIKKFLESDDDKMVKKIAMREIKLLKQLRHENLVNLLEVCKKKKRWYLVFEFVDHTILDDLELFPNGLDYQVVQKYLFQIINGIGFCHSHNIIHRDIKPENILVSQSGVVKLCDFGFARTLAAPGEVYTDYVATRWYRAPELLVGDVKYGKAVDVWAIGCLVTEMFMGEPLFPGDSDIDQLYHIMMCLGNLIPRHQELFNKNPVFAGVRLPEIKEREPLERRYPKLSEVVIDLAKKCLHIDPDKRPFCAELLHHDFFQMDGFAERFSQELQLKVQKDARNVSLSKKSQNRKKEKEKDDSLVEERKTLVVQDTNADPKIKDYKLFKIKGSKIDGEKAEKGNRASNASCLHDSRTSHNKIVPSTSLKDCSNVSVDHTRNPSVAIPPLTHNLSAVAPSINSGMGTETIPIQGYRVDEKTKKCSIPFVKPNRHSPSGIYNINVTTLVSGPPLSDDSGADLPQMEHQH

SRPK1 (human) = SRPK1 (human) (UniProt Q96SB4)
RIPK1 (human) = RIPK1 (human) (UniProt Q13546)
RIPK1 (human), sequence (Q13546 whole entry, looked up): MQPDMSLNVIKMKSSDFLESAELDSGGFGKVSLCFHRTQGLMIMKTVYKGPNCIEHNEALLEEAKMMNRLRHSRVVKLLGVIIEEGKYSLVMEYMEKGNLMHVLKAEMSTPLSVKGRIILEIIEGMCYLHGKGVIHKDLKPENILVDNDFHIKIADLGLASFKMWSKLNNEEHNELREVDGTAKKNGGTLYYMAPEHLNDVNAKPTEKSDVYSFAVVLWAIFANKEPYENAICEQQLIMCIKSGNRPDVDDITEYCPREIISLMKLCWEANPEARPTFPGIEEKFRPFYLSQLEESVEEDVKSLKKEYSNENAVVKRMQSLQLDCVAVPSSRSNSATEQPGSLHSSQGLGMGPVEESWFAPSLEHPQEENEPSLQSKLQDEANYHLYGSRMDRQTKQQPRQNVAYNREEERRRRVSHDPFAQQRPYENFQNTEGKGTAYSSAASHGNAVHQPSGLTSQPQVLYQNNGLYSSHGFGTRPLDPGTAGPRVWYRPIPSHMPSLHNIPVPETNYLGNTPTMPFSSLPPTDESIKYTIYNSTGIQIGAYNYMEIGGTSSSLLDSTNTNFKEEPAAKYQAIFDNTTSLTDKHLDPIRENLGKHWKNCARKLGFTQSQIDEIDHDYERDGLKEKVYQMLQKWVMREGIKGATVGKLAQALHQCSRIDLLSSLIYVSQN

MYO3A (human) = MYO3A (human) (UniProt Q8NEV4)
RAF1 (human) = RAF1 (human) (UniProt P04049)
DYRK1A (human) = DYRK1A (human) (UniProt Q13627)
IRAK1 (human) = IRAK1 (human) (UniProt P51617)
MARK2 (human) = MARK2 (human) (UniProt Q7KZI7)
MAPK9 (human) = MAPK9 (human) (UniProt P45984)
MAP3K1 (human) = MAP3K1 (human) (UniProt Q13233)
MAP3K1 (human), sequence (Q13233 whole entry, looked up): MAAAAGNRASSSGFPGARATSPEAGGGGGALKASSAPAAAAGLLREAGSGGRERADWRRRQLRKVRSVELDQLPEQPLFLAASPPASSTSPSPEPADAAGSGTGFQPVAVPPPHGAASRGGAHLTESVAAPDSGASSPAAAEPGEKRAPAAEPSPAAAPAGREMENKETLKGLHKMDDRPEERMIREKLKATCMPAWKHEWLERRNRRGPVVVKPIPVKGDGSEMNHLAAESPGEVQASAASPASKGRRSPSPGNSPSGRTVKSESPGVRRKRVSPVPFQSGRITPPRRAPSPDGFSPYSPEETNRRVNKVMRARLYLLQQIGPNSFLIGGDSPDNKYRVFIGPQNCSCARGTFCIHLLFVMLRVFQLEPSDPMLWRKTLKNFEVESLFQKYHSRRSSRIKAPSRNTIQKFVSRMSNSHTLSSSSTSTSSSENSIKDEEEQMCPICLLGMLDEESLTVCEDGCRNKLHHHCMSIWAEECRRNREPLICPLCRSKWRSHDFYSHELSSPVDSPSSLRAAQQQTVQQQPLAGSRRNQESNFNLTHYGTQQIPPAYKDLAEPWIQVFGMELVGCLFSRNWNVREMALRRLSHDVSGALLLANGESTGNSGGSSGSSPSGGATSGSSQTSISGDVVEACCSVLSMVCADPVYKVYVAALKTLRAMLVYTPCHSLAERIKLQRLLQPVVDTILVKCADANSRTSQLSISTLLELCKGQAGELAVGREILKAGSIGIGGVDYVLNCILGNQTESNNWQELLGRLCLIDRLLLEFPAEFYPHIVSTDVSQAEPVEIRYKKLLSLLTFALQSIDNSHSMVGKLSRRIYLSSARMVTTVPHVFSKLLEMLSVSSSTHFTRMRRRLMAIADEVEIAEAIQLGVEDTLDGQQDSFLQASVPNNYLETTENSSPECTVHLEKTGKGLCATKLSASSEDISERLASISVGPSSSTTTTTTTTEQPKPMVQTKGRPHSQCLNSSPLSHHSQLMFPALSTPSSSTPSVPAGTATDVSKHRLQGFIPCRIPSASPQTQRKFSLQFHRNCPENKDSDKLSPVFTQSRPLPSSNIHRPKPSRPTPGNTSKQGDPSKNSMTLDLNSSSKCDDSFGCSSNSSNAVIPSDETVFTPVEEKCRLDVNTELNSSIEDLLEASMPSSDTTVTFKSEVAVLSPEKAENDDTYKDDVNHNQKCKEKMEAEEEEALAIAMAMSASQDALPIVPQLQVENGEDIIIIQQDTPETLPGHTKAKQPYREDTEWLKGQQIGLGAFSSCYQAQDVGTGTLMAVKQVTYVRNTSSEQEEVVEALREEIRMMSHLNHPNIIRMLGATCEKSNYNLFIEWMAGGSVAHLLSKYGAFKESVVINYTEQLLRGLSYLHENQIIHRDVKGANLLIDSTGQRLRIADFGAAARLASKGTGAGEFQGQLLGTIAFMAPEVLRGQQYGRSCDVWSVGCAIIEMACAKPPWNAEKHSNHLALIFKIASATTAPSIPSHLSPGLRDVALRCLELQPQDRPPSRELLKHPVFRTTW

SGK110 (human) = SGK110 (human) (UniProt P0C264)
CDK8 (human) = CDK8 (human) (UniProt P49336)
ACVR1B (human) = ACVR1B (human) (UniProt P36896)
SRMS (human) = SRMS (human) (UniProt Q9H3Y6)
SRMS (human), sequence (Q9H3Y6 whole entry, looked up): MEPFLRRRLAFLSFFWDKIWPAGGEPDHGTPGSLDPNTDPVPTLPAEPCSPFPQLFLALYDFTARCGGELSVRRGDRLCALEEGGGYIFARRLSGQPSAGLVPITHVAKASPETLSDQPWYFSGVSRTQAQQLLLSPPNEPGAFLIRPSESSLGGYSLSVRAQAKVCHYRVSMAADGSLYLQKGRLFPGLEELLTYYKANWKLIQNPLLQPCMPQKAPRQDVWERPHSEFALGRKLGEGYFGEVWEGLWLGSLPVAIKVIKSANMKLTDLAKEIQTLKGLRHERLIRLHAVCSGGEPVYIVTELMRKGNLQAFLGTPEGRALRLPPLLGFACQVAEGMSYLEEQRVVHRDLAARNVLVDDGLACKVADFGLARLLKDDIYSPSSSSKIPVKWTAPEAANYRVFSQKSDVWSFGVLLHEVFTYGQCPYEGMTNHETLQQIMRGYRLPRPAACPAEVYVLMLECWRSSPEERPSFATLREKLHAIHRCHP

GSK3A (human) = GSK3A (human) (UniProt P49840)
GSK3A (human), sequence (P49840 whole entry, looked up): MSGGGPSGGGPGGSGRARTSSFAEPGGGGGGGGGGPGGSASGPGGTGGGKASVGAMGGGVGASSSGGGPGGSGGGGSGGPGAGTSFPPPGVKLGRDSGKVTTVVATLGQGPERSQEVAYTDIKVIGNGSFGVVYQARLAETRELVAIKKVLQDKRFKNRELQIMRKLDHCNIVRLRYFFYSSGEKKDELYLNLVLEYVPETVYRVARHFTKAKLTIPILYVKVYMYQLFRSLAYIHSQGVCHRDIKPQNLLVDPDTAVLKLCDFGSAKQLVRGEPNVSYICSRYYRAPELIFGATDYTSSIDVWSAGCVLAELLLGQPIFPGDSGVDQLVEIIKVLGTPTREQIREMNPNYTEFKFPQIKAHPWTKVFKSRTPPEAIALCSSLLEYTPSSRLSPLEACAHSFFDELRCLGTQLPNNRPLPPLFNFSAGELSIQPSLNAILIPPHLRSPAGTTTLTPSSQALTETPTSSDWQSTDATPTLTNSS

MAPKAPK5 (human) = MAPKAPK5 (human) (UniProt Q8IW41)
ROS1 (human) = ROS1 (human) (UniProt P08922)
PKMYT1 (human) = PKMYT1 (human) (UniProt Q99640)
PRKX (human) = PRKX (human) (UniProt P51817)
PRKACB (human) = PRKACB (human) (UniProt P22694)
DDR1 (human) = DDR1 (human) (UniProt Q08345)
CDK5 (human) = CDK5 (human) (UniProt Q00535)
CDK5 (human), sequence (Q00535 whole entry, looked up): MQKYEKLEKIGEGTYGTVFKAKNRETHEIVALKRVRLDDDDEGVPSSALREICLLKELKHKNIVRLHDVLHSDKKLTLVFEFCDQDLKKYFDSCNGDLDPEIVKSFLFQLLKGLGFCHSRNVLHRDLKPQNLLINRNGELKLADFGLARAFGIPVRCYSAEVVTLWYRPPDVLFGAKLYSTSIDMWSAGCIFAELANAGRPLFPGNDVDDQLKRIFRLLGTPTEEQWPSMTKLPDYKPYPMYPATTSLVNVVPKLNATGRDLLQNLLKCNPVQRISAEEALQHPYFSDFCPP

DAPK2 (human) = DAPK2 (human) (UniProt Q9UIK4)
FGFR2 (human) = FGFR2 (human) (UniProt P21802)

kinase still bound, per cent of control (FGFR1 (human)): 100% | kinase still bound, per cent of control (MUSK (human)): 100% | kinase still bound, per cent of control (MERTK (human)): 100% | kinase still bound, per cent of control [1]: 46% | kinase still bound, per cent of control (FER (human)): 100% | kinase still bound, per cent of control (PRKG1 (human)): 100% | kinase still bound, per cent of control (PRKD2 (human)): 100% | kinase still bound, per cent of control (WEE1 (human)): 98% | kinase still bound, per cent of control (CDK2 (human)): 54% | kinase still bound, per cent of control (TLK1 (human)): 75% | kinase still bound, per cent of control (MAP3K6 (human)): 80% | kinase still bound, per cent of control (RPS6KA5 KD2 (human)): 100% | kinase still bound, per cent of control (STK24 (human)): 97% | kinase still bound, per cent of control (BLK (human)): 100% | kinase still bound, per cent of control (KDR (human)): 100% | kinase still bound, per cent of control [2]: 69% | kinase still bound, per cent of control (BTK (human)): 100% | kinase still bound, per cent of control (DMPK (human)): 92% | kinase still bound, per cent of control (CDKL2 (human)): 3.8% | kinase still bound, per cent of control (SRPK1 (human)): 100% | kinase still bound, per cent of control (RIPK1 (human)): 100% | kinase still bound, per cent of control (MYO3A (human)): 100% | kinase still bound, per cent of control (RAF1 (human)): 100% | kinase still bound, per cent of control (DYRK1A (human)): 100% | kinase still bound, per cent of control (IRAK1 (human)): 100% | kinase still bound, per cent of control (MARK2 (human)): 100% | kinase still bound, per cent of control (MAPK9 (human)): 87% | kinase still bound, per cent of control (MAP3K1 (human)): 100% | kinase still bound, per cent of control (SGK110 (human)): 100% | kinase still bound, per cent of control (CDK8 (human)): 100% | kinase still bound, per cent of control (ACVR1B (human)): 100% | kinase still bound, per cent of control (SRMS (human)): 95% | kinase still bound, per cent of control (GSK3A (human)): 0% | kinase still bound, per cent of control (MAPKAPK5 (human)): 96% | kinase still bound, per cent of control (ROS1 (human)): 100% | kinase still bound, per cent of control (PKMYT1 (human)): 100% | kinase still bound, per cent of control (PRKX (human)): 100% | kinase still bound, per cent of control (PRKACB (human)): 100% | kinase still bound, per cent of control (DDR1 (human)): 100% | kinase still bound, per cent of control (CDK5 (human)): 67% | kinase still bound, per cent of control (DAPK2 (human)): 94% | kinase still bound, per cent of control (FGFR2 (human)): 98%
SMILES: Cc1cnc(-c2cnc(NCCNc3ccc(C#N)cn3)nc2-c2ccc(Cl)cc2Cl)[nH]1

kinase still bound, per cent of control (FGFR1 (human)): 18% | kinase still bound, per cent of control (MUSK (human)): 83% | kinase still bound, per cent of control (MERTK (human)): 0.4% | kinase still bound, per cent of control [1]: 0% | kinase still bound, per cent of control (FER (human)): 100% | kinase still bound, per cent of control (PRKG1 (human)): 100% | kinase still bound, per cent of control (PRKD2 (human)): 100% | kinase still bound, per cent of control (WEE1 (human)): 87% | kinase still bound, per cent of control (CDK2 (human)): 14% | kinase still bound, per cent of control (TLK1 (human)): 47% | kinase still bound, per cent of control (MAP3K6 (human)): 41% | kinase still bound, per cent of control (RPS6KA5 KD2 (human)): 75% | kinase still bound, per cent of control (STK24 (human)): 12% | kinase still bound, per cent of control (BLK (human)): 0.05% | kinase still bound, per cent of control (KDR (human)): 0.9% | kinase still bound, per cent of control [2]: 100% | kinase still bound, per cent of control (BTK (human)): 38% | kinase still bound, per cent of control (DMPK (human)): 100% | kinase still bound, per cent of control (CDKL2 (human)): 6.1% | kinase still bound, per cent of control (SRPK1 (human)): 5% | kinase still bound, per cent of control (RIPK1 (human)): 2.4% | kinase still bound, per cent of control (MYO3A (human)): 60% | kinase still bound, per cent of control (RAF1 (human)): 90% | kinase still bound, per cent of control (DYRK1A (human)): 59% | kinase still bound, per cent of control (IRAK1 (human)): 39% | kinase still bound, per cent of control (MARK2 (human)): 19% | kinase still bound, per cent of control (MAPK9 (human)): 63% | kinase still bound, per cent of control (MAP3K1 (human)): 100% | kinase still bound, per cent of control (SGK110 (human)): 100% | kinase still bound, per cent of control (CDK8 (human)): 100% | kinase still bound, per cent of control (ACVR1B (human)): 77% | kinase still bound, per cent of control (SRMS (human)): 13% | kinase still bound, per cent of control (GSK3A (human)): 0% | kinase still bound, per cent of control (MAPKAPK5 (human)): 100% | kinase still bound, per cent of control (ROS1 (human)): 100% | kinase still bound, per cent of control (PKMYT1 (human)): 90% | kinase still bound, per cent of control (PRKX (human)): 100% | kinase still bound, per cent of control (PRKACB (human)): 100% | kinase still bound, per cent of control (DDR1 (human)): 55% | kinase still bound, per cent of control (CDK5 (human)): 9.5% | kinase still bound, per cent of control (DAPK2 (human)): 2.6% | kinase still bound, per cent of control (FGFR2 (human)): 15%
SMILES: O=C1Nc2cc(Br)ccc2/C1=C1/Nc2ccccc2/C1=N\O

kinase still bound, per cent of control (FGFR1 (human)): 100% | kinase still bound, per cent of control (MUSK (human)): 100% | kinase still bound, per cent of control (MERTK (human)): 100% | kinase still bound, per cent of control [1]: 86% | kinase still bound, per cent of control (FER (human)): 100% | kinase still bound, per cent of control (PRKG1 (human)): 97% | kinase still bound, per cent of control (PRKD2 (human)): 93% | kinase still bound, per cent of control (WEE1 (human)): 80% | kinase still bound, per cent of control (CDK2 (human)): 74% | kinase still bound, per cent of control (TLK1 (human)): 96% | kinase still bound, per cent of control (MAP3K6 (human)): 85% | kinase still bound, per cent of control (RPS6KA5 KD2 (human)): 100% | kinase still bound, per cent of control (STK24 (human)): 84% | kinase still bound, per cent of control (KDR (human)): 67% | kinase still bound, per cent of control [2]: 100% | kinase still bound, per cent of control (BTK (human)): 100% | kinase still bound, per cent of control (DMPK (human)): 100% | kinase still bound, per cent of control (CDKL2 (human)): 40% | kinase still bound, per cent of control (SRPK1 (human)): 100% | kinase still bound, per cent of control (RIPK1 (human)): 100% | kinase still bound, per cent of control (MYO3A (human)): 100% | kinase still bound, per cent of control (RAF1 (human)): 63% | kinase still bound, per cent of control (DYRK1A (human)): 100% | kinase still bound, per cent of control (IRAK1 (human)): 100% | kinase still bound, per cent of control (MARK2 (human)): 100% | kinase still bound, per cent of control (MAPK9 (human)): 84% | kinase still bound, per cent of control (MAP3K1 (human)): 100% | kinase still bound, per cent of control (SGK110 (human)): 83% | kinase still bound, per cent of control (CDK8 (human)): 100% | kinase still bound, per cent of control (ACVR1B (human)): 86% | kinase still bound, per cent of control (SRMS (human)): 75% | kinase still bound, per cent of control (GSK3A (human)): 0.1% | kinase still bound, per cent of control (MAPKAPK5 (human)): 100% | kinase still bound, per cent of control (ROS1 (human)): 100% | kinase still bound, per cent of control (PKMYT1 (human)): 53% | kinase still bound, per cent of control (PRKX (human)): 42% | kinase still bound, per cent of control (PRKACB (human)): 98% | kinase still bound, per cent of control (DDR1 (human)): 100% | kinase still bound, per cent of control (CDK5 (human)): 72% | kinase still bound, per cent of control (DAPK2 (human)): 93% | kinase still bound, per cent of control (FGFR2 (human)): 81%
SMILES: COc1ccc(CNC(=O)Nc2ncc([N+](=O)[O-])s2)cc1
